Reference: the supplement of paper PMC10307832

What was measured:
Assay in all cases: relative viability (nuclei count vs DMSO), 5 days (fraction); higher = more cells survive
[1] = compound: COc1ccc(-c2ccc3c(N4CCOC[C@@H]4C)nc(N4CCOC[C@@H]4C)nc3n2)cc1CO [AZD8055] + COc1cc2c(Oc3ccc(NC(=O)C4(C(=O)Nc5ccc(F)cc5)CC4)cc3F)ccnc2cc1OCCCN1CCOCC1 [Foretinib] (partner 0.25 µM)
In short: (§1)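 Medians of duplicate plates are given as relative viability. That measure is the nuclei count in treated wells divided by the count in vehicle wells. Counts were taken on 4× images of lung cancer cell lines in 1536-well plates, 5 days after pin-tool dosing the day after seeding with one drug alone or a fixed anchor-drug dose plus five library-drug doses (not always all listed) in √10 steps.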

[2] = compound: COc1ccc(-c2ccc3c(N4CCOC[C@@H]4C)nc(N4CCOC[C@@H]4C)nc3n2)cc1CO [AZD8055] + Cc1cc(Nc2cc(N3CCN(C)CC3)nc(Sc3ccc(NC(=O)C4CC4)cc3)n2)n[nH]1 [Tozasertib] (partner 0.1 µM)
In short: as §1

[3] = compound: COc1ccc(-c2ccc3c(N4CCOC[C@@H]4C)nc(N4CCOC[C@@H]4C)nc3n2)cc1CO [AZD8055] + CCNC(=O)c1noc(-c2cc(C(C)C)c(O)cc2O)c1-c1ccc(CN2CCOCC2)cc1 [Luminespib] (partner 0.01 µM)
In short: as §1

[4] = compound: COc1ccc(-c2ccc3c(N4CCOC[C@@H]4C)nc(N4CCOC[C@@H]4C)nc3n2)cc1CO [AZD8055] + NC(=O)Nc1cc(-c2cccc(F)c2)sc1C(=O)N[C@H]1CCCNC1 [AZD7762] (partner 0.2 µM)
In short: as §1

Cell Line | relative viability ([1]; first compound 0.01 µM) | relative viability ([1]; first compound 0.03162 µM) | relative viability ([1]; first compound 0.1 µM) | relative viability ([1]; first compound 0.3162 µM) | relative viability ([1]; first compound 1 µM) | relative viability ([2]; first compound 0.01 µM) | relative viability ([2]; first compound 0.03162 µM) | relative viability ([2]; first compound 0.1 µM) | relative viability ([2]; first compound 0.3162 µM) | relative viability ([2]; first compound 1 µM) | relative viability ([3]; first compound 0.01 µM) | relative viability ([3]; first compound 0.03162 µM) | relative viability ([3]; first compound 0.1 µM) | relative viability ([3]; first compound 0.3162 µM) | relative viability ([3]; first compound 1 µM) | relative viability ([4]; first compound 0.01 µM) | relative viability ([4]; first compound 0.03162 µM) | relative viability ([4]; first compound 0.1 µM) | relative viability ([4]; first compound 0.3162 µM) | relative viability ([4]; first compound 1 µM)
201T | 1.34 | 1.08 | 0.892 | 0.391 | 0.328 | 0.98 | 0.895 | 0.813 | 0.529 | 0.595 | 0.979 | 1.01 | 0.814 | 0.421 | 0.42 | 0.621 | 0.413 | 0.5 | 0.362 | 0.374
A-427 | 0.954 | 0.983 | 0.856 | 0.491 | 0.416 | 0.204 | 0.193 | 0.22 | 0.163 | 0.208 | 1.3 | 0.832 | 0.817 | 0.482 | 0.581 | 0.762 | 0.597 | 0.529 | 0.5 | 0.427
ABC-1 | 1.2 | 0.909 | 0.997 | 0.701 | 0.324 | 0.186 | 0.187 | 0.174 | 0.196 | 0.19 | 0.434 | 0.521 | 0.289 | 0.331 | 0.284 | 0.879 | 0.766 | 1.02 | 0.406 | 0.495
BEN | 0.533 | 0.463 | 0.389 | 0.284 | 0.284 | 0.563 | 0.48 | 0.492 | 0.471 | 0.345 | 0.242 | 0.179 | 0.305 | 0.216 | 0.192 | 0.684 | 0.408 | 0.41 | 0.403 | 0.357
CAL-12T | 1.25 | 1.22 | 1.01 | 0.414 | 0.279 | 0.329 | 0.37 | 0.277 | 0.174 | 0.166 | 0.321 | 0.203 | 0.131 | 0.152 | 0.139 | 0.695 | 0.8 | 0.733 | 0.421 | 0.339
ChaGo-K-1 | 1.07 | 0.862 | 0.81 | 0.61 | 0.621 | 0.214 | 0.213 | 0.213 | 0.168 | 0.175 | 0.611 | 0.604 | 0.533 | 0.423 | 0.297 | 0.957 | 0.832 | 0.828 | 0.703 | 0.645
EKVX | 0.872 | 1.25 | 0.731 | 0.702 | 0.367 | 0.451 | 0.418 | 0.345 | 0.226 | 0.202 | 0.949 | 0.866 | 0.655 | 0.355 | 0.248 | 0.783 | 0.594 | 0.605 | 0.375 | 0.29
EMC-BAC-2 | 0.965 | 0.846 | 0.809 | 0.393 | 0.347 | 0.279 | 0.299 | 0.249 | 0.257 | 0.255 | 1.18 | 1.05 | 0.867 | 0.534 | 0.403 | 1.03 | 0.912 | 0.956 | 0.517 | 0.377
EPLC-272H | 0.537 | 0.418 | 0.378 | 0.274 | 0.21 | 0.279 | 0.152 | 0.161 | 0.229 | 0.222 | 0.182 | 0.12 | 0.178 | 0.22 | 0.182 | 0.178 | 0.0952 | 0.243 | 0.109 | 0.127
H3255 | 0.562 | 0.769 | 0.786 | 0.418 | 0.308 | 0.574 | 0.716 | 0.535 | 0.604 | 0.359 | 0.879 | 0.804 | 0.845 | 0.382 | 0.381 | 1.03 | 0.951 | 0.803 | 0.471 | 0.413
HARA | 0.983 | 0.762 | 0.374 | 0.272 | 0.258 | 0.103 | 0.162 | 0.0997 | 0.0987 | 0.0859 | 1.44 | 0.584 | 0.393 | 0.112 | 0.12 | – | 0.384 | 0.406 | 0.487 | 0.306
HCC-15 | 1.05 | 0.969 | 0.755 | 0.537 | 0.445 | 0.437 | 0.379 | 0.415 | 0.296 | 0.222 | 0.304 | 0.39 | 0.262 | 0.208 | 0.242 | 1.26 | 1.18 | 1.21 | 0.885 | 0.559
HCC-827 | 1.14 | 0.98 | 1.02 | 0.424 | 0.337 | 0.449 | 0.448 | 0.447 | 0.235 | 0.295 | 0.6 | 0.336 | 0.308 | 0.319 | 0.13 | 0.203 | 0.319 | 0.189 | 0.212 | 0.165
HOP-62 | 1.01 | 1.01 | 1.09 | 0.609 | 0.521 | 0.414 | 0.46 | 0.401 | 0.292 | 0.273 | 1.08 | 0.842 | 0.888 | 0.634 | 0.482 | 0.677 | 0.418 | 0.512 | 0.167 | 0.111
NCI-H522 | – | – | – | – | – | 0.571 | 0.544 | 0.421 | 0.421 | 0.425 | 1.19 | 0.994 | 0.744 | 0.581 | 0.553 | 0.847 | 0.799 | 0.647 | 0.532 | 0.569
